Experiments:
Assay in all cases: Growth inhibitory activity of compounds on BaF3 cell lines stably transfected with kinase (MTS, 48 h)
Assay type in all cases: cell-based
[1] = biological target: T1, various mutants of kinase EGFR (BaF3 cell lines stably transfected with kinase) (Homo sapiens, UniProt P00533, C797S/L858R/T790M); conditions: BaF3 cell line stably transfected with EGFR L858R/T790M/C797S, read-out: L858R/T790M/ C797S growth inhibitory activity IC50
T1 construct: expressed in transfected cells; host or cells: BaF3
Summary of the method: (§1)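 BaF3 cells stably transfected with EGFR mutants were exposed for 48 h at 37°C to 8 compound concentrations (top 10 µM, 1/3 dilutions, 0.1% DMSO). Growth was read by MTS at 490 nm after 1-4 h, in duplicate; IC50 was derived from inhibition rates versus DMSO control.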

[2] = biological target: T2, various mutants of kinase EGFR (BaF3 cell lines stably transfected with kinase) (Homo sapiens, UniProt P00533, L858R); conditions: BaF3 cell line stably transfected with EGFR L858R, read-out: L858R growth inhibitory activity IC50
T2 construct: expressed in transfected cells; host or cells: BaF3
T2 sequence (P00533 25-1210 L858R): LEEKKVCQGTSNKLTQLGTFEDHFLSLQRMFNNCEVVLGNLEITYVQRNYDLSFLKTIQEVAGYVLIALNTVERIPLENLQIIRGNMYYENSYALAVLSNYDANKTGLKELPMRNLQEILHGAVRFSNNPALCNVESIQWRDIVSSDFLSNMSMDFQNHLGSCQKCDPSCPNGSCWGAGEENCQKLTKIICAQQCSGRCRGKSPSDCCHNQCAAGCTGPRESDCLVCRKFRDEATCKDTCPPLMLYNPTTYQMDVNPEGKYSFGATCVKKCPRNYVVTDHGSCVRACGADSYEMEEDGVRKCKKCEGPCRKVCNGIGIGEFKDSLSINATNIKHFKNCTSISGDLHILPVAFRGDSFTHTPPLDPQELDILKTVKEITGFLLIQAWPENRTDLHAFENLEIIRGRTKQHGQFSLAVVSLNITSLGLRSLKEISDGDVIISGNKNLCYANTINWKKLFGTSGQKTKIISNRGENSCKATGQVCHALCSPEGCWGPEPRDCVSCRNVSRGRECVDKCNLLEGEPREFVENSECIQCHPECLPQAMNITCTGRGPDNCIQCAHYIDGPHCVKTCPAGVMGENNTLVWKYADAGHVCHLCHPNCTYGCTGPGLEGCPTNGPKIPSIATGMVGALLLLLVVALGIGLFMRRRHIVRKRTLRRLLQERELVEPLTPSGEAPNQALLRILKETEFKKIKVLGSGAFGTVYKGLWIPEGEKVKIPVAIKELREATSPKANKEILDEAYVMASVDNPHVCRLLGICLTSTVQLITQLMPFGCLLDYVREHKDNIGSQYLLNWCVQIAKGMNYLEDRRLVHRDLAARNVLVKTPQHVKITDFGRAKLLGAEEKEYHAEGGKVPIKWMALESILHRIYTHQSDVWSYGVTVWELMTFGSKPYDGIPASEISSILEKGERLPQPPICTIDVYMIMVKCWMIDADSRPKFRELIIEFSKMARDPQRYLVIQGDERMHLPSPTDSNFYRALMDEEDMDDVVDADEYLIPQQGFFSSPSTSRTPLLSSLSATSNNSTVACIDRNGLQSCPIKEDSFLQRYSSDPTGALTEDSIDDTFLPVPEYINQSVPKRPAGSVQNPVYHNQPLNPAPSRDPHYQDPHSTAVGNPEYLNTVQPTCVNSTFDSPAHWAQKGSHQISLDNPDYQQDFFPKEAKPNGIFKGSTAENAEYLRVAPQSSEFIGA
Summary of the method: as §1

[3] = biological target: T3, various mutants of kinase EGFR (BaF3 cell lines stably transfected with kinase) (Homo sapiens, UniProt P00533, T790M, form not given); conditions: BaF3 cell line stably transfected with EGFR Δ19Del/T790M, read-out: Δ19Del/ T790M growth inhibitory activity IC50
T3 construct: other: BaF3 cells stably transfected with EGFR Δ19Del/T790M; MTS, 48 h; other: BaF3 cell line stably transfected with EGFR Δ19Del/T790M; MTS, 48
T3 sequence (P00533 with tags, fused parts or gaps DEL746-750/T790M, form open): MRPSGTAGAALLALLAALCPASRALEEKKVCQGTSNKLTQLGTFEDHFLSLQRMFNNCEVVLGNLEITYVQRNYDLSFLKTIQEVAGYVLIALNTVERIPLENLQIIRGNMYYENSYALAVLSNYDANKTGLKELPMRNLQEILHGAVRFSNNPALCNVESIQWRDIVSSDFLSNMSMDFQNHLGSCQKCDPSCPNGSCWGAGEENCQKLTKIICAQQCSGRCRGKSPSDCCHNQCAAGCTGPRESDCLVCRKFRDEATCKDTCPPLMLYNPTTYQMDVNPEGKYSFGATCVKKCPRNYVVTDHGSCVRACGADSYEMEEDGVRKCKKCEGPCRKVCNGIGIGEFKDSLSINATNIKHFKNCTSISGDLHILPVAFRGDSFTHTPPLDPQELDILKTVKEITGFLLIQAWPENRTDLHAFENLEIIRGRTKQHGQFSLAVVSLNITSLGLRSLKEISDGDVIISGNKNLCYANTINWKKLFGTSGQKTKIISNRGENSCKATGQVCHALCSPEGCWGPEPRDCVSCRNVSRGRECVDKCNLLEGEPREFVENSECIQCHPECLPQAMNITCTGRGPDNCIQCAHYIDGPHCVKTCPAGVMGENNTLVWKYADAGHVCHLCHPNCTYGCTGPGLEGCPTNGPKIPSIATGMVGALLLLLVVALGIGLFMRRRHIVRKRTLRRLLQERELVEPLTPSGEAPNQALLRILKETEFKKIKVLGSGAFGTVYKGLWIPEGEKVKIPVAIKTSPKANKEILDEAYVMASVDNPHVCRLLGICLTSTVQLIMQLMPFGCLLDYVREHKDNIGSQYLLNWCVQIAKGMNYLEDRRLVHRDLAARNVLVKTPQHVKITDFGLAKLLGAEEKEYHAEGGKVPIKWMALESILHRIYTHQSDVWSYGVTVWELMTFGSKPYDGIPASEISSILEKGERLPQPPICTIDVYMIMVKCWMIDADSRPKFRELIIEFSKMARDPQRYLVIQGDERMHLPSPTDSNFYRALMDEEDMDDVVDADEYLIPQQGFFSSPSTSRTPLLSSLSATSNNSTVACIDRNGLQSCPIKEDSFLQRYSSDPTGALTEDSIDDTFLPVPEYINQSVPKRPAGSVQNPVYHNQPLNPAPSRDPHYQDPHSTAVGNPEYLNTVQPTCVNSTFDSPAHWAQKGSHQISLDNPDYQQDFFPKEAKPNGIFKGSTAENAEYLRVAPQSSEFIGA
Summary of the method: as §1

[4] = biological target: T4, various mutants of kinase EGFR (BaF3 cell lines stably transfected with kinase) (Homo sapiens, UniProt P00533, L858R/T790M); conditions: BaF3 cell line stably transfected with EGFR L858R/T790M, read-out: L858R/ T790M growth inhibitory activity IC50
T4 construct: expressed in transfected cells; host or cells: BaF3
T4 sequence (P00533 25-1210 T790M/L858R): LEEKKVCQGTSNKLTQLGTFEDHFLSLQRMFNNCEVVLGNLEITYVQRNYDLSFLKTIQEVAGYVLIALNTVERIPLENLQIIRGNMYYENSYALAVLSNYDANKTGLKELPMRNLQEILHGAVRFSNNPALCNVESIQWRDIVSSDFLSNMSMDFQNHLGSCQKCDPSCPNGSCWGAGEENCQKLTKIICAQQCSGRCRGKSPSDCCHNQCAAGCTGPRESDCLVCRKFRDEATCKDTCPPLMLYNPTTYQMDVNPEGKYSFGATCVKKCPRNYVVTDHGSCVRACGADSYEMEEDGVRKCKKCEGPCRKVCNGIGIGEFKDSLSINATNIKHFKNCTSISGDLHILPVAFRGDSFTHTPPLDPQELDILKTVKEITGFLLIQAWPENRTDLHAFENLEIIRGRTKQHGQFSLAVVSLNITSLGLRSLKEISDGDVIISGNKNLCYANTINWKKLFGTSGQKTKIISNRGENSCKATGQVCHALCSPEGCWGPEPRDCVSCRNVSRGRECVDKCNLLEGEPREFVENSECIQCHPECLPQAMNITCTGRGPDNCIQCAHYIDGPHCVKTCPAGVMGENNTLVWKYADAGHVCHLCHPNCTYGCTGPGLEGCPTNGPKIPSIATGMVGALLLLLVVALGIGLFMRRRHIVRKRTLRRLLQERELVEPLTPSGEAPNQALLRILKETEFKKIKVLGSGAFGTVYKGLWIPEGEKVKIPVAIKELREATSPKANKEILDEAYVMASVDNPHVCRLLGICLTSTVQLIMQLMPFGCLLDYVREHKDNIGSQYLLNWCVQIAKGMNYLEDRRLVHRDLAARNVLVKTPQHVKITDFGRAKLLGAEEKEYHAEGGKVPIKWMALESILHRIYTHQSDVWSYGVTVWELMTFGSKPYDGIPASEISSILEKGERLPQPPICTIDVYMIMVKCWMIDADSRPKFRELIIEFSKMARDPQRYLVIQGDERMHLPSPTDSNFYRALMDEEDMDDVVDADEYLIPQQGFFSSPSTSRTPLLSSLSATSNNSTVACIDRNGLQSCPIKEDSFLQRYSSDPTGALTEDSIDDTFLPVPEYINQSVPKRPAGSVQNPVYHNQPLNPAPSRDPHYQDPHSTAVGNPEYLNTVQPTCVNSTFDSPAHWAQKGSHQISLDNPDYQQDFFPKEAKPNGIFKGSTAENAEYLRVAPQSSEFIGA
Summary of the method: as §1

[5] = biological target: T5, various mutants of kinase EGFR (BaF3 cell lines stably transfected with kinase) (Homo sapiens, UniProt P00533, T790M/C797S, form not given); conditions: BaF3 cell line stably transfected with EGFR Δ19Del/T790M/C797S, read-out: Δ19Del/T790M/ C797S growth inhibitory activity IC50
T5 construct: other: BaF3 cells stably transfected with EGFR Δ19Del/T790M/C797S; MTS, 48; other: BaF3 cell line stably transfected with EGFR Δ19Del/T790M/C7
T5 sequence (P00533 with tags, fused parts or gaps DEL746-750/T790M/C797S, form open): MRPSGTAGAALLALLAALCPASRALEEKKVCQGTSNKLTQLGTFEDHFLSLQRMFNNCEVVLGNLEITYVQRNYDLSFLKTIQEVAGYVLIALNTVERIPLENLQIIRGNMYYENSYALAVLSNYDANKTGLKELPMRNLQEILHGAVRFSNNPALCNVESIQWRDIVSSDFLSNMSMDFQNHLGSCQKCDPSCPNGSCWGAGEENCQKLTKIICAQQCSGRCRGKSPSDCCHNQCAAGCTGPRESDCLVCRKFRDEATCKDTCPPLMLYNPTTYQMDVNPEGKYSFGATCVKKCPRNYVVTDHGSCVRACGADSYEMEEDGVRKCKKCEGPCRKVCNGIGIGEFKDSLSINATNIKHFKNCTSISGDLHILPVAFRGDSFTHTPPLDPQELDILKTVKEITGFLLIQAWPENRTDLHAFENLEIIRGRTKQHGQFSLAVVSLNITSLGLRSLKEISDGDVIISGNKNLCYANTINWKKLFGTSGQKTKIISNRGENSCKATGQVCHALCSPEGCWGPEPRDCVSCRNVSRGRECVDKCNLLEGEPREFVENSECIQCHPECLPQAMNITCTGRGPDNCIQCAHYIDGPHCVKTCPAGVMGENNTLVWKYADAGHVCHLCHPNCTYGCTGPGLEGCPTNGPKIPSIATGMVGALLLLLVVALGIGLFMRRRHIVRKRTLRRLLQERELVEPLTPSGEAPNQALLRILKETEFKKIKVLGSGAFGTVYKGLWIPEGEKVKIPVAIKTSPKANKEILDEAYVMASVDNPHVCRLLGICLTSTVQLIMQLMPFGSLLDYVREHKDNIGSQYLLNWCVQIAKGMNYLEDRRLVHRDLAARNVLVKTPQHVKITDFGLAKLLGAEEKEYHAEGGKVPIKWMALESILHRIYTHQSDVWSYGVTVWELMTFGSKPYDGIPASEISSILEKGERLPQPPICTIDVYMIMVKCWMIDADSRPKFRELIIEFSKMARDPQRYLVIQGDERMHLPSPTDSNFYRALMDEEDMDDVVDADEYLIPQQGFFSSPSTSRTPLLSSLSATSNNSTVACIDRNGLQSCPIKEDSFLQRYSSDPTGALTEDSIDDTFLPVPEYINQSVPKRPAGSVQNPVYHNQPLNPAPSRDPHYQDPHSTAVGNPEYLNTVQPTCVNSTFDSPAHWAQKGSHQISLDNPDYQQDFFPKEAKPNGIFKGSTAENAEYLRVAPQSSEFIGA
Summary of the method: as §1

[6] = biological target: T6, various mutants of kinase EGFR (BaF3 cell lines stably transfected with kinase) (Homo sapiens, UniProt P00533); conditions: BaF3 cell line stably transfected with EGFR Δ19Del, read-out: Δ19Del growth inhibitory activity IC50
T6 construct: other: BaF3 cells stably transfected with EGFR Δ19Del; MTS, 48 h; other: BaF3 cell line stably transfected with EGFR Δ19Del
Summary of the method: as §1

SMILES	IC50 [1]	IC50 [2]	IC50 [3]	IC50 [4]	IC50 [5]	IC50 [6]
COc1cc(N2CCC(N3CCN(C)CC3)CC2)c(C)cc1Nc1nc(Nc2ccc3nccnc3c2N(C)S(C)(=O)=O)c2cc[nH]c2n1 [II-2-5]	≤ 50 nM	50 to 500 nM	≤ 50 nM	≤ 50 nM	≤ 50 nM	50 to 500 nM
CCc1cc(Nc2nc(Nc3ccc4nccnc4c3N(C)S(C)(=O)=O)c3cc[nH]c3n2)c(OC)nc1N1CCC(N2CCN(C)CC2)CC1 [II-2-7]	≤ 50 nM	50 to 500 nM	≤ 50 nM	≤ 50 nM	≤ 50 nM	50 to 500 nM
CCc1cc(Nc2nc(Nc3ccc4nccnc4c3N(C)S(C)(=O)=O)c3cc[nH]c3n2)c(OC(F)(F)F)cc1N1CCC(N2CCN(C)CC2)CC1 [II-2-8]	≤ 50 nM	50 to 500 nM	≤ 50 nM	50 to 500 nM	≤ 50 nM	50 to 500 nM
C=Cc1cc(Nc2nc(Nc3ccc4nccnc4c3N(C)S(C)(=O)=O)c3cc[nH]c3n2)c(OC(F)(F)F)cc1N1CCC(N2CCN(C)CC2)CC1 [II-2-9]	≤ 50 nM	50 to 500 nM	≤ 50 nM	≤ 50 nM	≤ 50 nM	50 to 500 nM
COc1cc(N2CCN(C)CC2)c(C)cc1Nc1nc(Nc2ccc3nccnc3c2N(C)S(C)(=O)=O)c2cc[nH]c2n1 [II-2-12]	≤ 50 nM	50 to 500 nM	≤ 50 nM	≤ 50 nM	≤ 50 nM	50 to 500 nM

The remaining lines, values ahead:

IC50 [1]	IC50 [2]	IC50 [3]	IC50 [4]	IC50 [5]	IC50 [6]	SMILES
50 to 500 nM	500 to 2500 nM	50 to 500 nM	50 to 500 nM	≤ 50 nM	500 to 2500 nM	CCc1cc(Nc2nc(Nc3ccc4nccnc4c3N(C)S(C)(=O)=O)c3cc[nH]c3n2)c(OC)cc1N1CCC(N(C)C)C1 (stereo not drawn) [II-2-17]
50 to 500 nM	500 to 2500 nM	50 to 500 nM	≤ 50 nM	≤ 50 nM	50 to 500 nM	COc1cc(N2CCC(N3CCN(C)CC3)CC2)ccc1Nc1nc(Nc2ccc3nccnc3c2N(C)S(C)(=O)=O)c2cc[nH]c2n1 [II-2-22]
≤ 50 nM	50 to 500 nM	50 to 500 nM	50 to 500 nM	≤ 50 nM	50 to 500 nM	COc1ccc(N2CCC(O)CC2)cc1Nc1nc(Nc2ccc3nccnc3c2N(C)S(C)(=O)=O)c2cc[nH]c2n1 [II-2-23]
